Test results as given in EPA's ToxValDB 9.5 (doi:10.2903/j.efsa.2011.2088).

How the values were obtained:
Anas platyrhynchos = conditions: short-term; oral; feed; mortality
Apis mellifera = conditions: acute; duration: 48 hours; dermal; mortality
Bibionidae = conditions: chronic/long-term; duration: 28 days
Canidae = conditions: chronic; duration: 1 years; oral; diet; M/F; Beagle; hematological
Colinus virginianus = conditions: for LD50: acute, oral, mortality
Daphnia magna = conditions: chronic/long-term; duration: 21 days; mortality
Folsomia candida = conditions: chronic/long-term; duration: 28 days
Oncorhynchus mykiss = conditions: acute; duration: 96 hours; mortality
Pimephales promelas = conditions: chronic/long-term; duration: 34 days; reproduction
Tagia sp. = conditions: mortality
Aphidius rhopalosiphi = experiment: LR50; higher = less toxic; conditions: not reported; mortality
Typhlodromus pyri = experiment: LR50; higher = less toxic; conditions: not reported; mortality

## O=C(NC(=O)c1c(F)cccc1F)Nc1ccc(Oc2ccc(C(F)(F)F)cc2Cl)cc1F [Flufenoxuron]
Anas platyrhynchos
  LD50: > 1240 mg/kg-day
Apis mellifera
  LD50: > 100 µg/piece
Bibionidae
  NOEC: 3.6e-05 mg/L
Canidae
  NOAEL: ≤ 3.8 mg/kg-day
Colinus virginianus; diet
  LD50: > 1240 mg/kg-day
Colinus virginianus
  LD50: > 2000 mg/kg-day
Colinus virginianus; reproduction developmental
  NOEL: 9.76 mg/kg-day
Daphnia magna
  NOEC: 3.24e-06 mg/L
Folsomia candida
  NOEC: 0.11 mg/kg
Oncorhynchus mykiss
  LC50: > 5 ng/mL
Pimephales promelas
  NOEC: 0.00082 mg/L
Rattus norvegicus; acute, oral, mortality
  LD50: > 3000 mg/kg-day
Rattus norvegicus; reproduction developmental, growth
  NOAEL: 4.3 mg/kg-day
Tagia sp.; acute, duration: 14 days
  LC50: > 1000 mg/kg
Tagia sp.; chronic/long-term, duration: 56 days
  NOEC: 5 mg/kg
Aphidius rhopalosiphi
  LR50: > 386 g/ha
Typhlodromus pyri
  LR50: 73 g/ha
